Measured values reported in ChEMBL document CHEMBL1133242, “Selective alpha1a adrenergic receptor antagonists based on 4-aryl-3,4-dihydropyridine-2-ones” (Bioorg Med Chem Lett, 2000).

Experiments:
[1] = target: T1, Alpha-1D adrenergic receptor (Homo sapiens, UniProt P25100); assay: In vitro antagonism at Alpha-1D adrenergic receptor; assay type: functional
T1 sequence (P25100 whole entry): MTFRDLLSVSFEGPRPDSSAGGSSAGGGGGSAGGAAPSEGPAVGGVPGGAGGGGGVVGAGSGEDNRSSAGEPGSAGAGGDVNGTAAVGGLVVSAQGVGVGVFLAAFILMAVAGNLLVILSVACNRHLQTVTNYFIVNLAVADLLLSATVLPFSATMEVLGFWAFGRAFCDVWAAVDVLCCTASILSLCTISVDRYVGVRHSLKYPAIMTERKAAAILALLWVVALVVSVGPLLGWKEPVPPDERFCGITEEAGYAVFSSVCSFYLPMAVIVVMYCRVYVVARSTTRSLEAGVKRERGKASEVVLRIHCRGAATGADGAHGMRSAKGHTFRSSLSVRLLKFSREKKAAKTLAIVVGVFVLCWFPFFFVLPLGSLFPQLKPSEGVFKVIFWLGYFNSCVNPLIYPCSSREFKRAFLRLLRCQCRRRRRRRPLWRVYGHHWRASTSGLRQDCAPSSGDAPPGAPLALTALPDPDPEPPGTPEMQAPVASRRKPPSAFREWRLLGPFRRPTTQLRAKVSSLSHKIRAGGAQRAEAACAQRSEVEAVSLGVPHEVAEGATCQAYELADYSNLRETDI

[2] = target: T2, Alpha-1B adrenergic receptor (Homo sapiens, UniProt P35368); assay: In vitro antagonism at Alpha-1B adrenergic receptor; assay type: functional
T2 sequence (P35368 whole entry): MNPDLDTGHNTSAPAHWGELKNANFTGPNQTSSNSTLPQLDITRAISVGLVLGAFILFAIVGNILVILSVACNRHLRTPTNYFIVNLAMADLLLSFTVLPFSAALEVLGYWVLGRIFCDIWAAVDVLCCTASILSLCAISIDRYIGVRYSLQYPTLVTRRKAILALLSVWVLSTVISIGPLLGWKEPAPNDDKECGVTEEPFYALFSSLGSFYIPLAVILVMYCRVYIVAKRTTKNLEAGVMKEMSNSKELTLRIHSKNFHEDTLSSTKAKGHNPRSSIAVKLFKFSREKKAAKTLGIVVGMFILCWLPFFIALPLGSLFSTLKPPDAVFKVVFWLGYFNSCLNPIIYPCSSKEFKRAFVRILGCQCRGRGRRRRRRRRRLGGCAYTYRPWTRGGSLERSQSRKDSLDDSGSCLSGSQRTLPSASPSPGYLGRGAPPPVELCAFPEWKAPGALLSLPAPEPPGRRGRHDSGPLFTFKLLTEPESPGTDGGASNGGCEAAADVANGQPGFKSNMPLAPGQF

[3] = target: T3, Alpha-1A adrenergic receptor (Homo sapiens, UniProt P35348); assay: In vitro antagonism at Alpha-1A adrenergic receptor; assay type: functional
T3 sequence (P35348 whole entry): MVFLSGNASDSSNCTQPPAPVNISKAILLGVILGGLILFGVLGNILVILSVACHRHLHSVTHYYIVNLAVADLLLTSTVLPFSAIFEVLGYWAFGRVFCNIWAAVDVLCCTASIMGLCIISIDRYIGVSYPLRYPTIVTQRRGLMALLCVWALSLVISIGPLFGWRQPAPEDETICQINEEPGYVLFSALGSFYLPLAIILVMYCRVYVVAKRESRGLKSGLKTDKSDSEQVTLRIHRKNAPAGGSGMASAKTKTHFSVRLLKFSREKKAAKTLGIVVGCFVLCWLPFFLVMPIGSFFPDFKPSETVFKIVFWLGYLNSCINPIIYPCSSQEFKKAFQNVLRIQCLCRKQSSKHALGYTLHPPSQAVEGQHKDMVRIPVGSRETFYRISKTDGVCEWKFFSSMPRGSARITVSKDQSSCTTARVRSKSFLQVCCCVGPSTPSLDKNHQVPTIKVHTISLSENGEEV

[4] = target: T4, Alpha-2B adrenergic receptor (Homo sapiens, UniProt P18089); assay: […] inhibitory effect against alpha-2b Adrenergic receptor
T4 sequence (P18089 whole entry): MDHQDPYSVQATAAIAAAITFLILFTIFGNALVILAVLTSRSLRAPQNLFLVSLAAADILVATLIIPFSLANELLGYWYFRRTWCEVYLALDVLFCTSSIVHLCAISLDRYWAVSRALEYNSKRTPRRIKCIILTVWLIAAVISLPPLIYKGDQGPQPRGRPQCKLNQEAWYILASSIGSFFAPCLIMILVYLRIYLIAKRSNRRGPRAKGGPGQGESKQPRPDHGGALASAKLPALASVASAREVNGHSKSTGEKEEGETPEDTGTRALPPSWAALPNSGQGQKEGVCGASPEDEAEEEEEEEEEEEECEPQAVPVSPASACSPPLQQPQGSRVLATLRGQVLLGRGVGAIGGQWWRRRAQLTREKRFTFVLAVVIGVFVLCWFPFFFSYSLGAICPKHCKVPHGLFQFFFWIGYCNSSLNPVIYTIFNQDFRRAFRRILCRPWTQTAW

[5] = target: T5, Alpha-2A adrenergic receptor (Homo sapiens, UniProt P08913); assay: […] inhibitory effect against Alpha-2A adrenergic receptor
T5 sequence (P08913 whole entry): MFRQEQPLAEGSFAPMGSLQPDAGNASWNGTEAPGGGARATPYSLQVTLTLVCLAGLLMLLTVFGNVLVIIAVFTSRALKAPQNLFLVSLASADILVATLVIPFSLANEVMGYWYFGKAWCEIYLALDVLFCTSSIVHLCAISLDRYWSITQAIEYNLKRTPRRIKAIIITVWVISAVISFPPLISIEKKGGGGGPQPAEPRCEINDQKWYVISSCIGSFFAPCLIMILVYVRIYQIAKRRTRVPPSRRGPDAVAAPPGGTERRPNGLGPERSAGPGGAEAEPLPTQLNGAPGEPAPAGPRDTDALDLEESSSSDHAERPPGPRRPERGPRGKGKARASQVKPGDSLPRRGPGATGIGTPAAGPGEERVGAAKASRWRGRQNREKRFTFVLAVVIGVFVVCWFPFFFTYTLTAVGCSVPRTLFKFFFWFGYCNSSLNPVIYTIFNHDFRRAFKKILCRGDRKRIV

[6] = target: T6, Alpha-2C adrenergic receptor (Homo sapiens, UniProt P18825); assay: […] inhibitory effect against Alpha-2C adrenergic receptor
T6 sequence (P18825 whole entry): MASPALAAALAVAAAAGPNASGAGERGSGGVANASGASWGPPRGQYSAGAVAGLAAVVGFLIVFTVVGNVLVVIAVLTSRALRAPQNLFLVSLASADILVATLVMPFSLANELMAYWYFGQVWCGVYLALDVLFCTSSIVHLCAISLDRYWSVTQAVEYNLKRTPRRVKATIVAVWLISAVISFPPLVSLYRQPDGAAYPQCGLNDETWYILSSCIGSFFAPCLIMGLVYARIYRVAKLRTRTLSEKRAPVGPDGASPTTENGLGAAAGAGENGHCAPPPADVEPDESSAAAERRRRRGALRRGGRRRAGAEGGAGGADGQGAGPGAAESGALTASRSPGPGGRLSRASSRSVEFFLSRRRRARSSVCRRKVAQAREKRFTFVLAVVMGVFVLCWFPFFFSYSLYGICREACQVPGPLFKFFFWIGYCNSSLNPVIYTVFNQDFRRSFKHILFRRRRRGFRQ

Rattus norvegicus [7] = species: Rattus norvegicus; assay: Dose required to inhibit the prostate contractile response by 50% after challenge with selective alpha-1a agonist A61603 in an in situ rat prostate model; assay type: functional, Prostate gland
Histamine H1 receptor = Histamine H1 receptor (Homo sapiens, UniProt P35367); assay: Selectivity screen against human Histamine H1 receptor
Sequence of Histamine H1 receptor (P35367 whole entry): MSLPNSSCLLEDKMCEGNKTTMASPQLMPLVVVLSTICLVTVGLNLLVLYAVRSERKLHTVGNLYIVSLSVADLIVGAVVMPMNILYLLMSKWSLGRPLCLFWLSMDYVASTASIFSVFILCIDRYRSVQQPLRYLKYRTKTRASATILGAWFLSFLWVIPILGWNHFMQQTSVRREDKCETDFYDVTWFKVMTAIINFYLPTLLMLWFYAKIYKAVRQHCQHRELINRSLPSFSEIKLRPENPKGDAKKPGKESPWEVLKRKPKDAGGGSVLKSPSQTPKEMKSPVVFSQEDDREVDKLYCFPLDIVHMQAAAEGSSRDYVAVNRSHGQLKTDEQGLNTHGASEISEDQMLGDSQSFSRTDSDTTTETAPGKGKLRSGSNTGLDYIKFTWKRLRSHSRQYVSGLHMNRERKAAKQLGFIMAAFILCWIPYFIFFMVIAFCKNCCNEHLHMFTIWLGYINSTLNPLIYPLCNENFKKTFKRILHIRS

[8] = t1/2 value in rat; assay type: ADME, organism-based; details: in vivo
Rattus norvegicus [9] = species: Rattus norvegicus; assay: Dose required to inhibit the prostate contractile response by 50% after challenge with selective alpha-1a agonist A61603 and duration of action was 4 hr in an in situ rat prostate model; assay type: functional, Prostate gland
Rattus norvegicus [10] = species: Rattus norvegicus; assay: Dose required to inhibit the prostate contractile response by 50% after challenge with selective alpha-1a agonist A61603 and duration of action was 3.5h in an in situ rat prostate model; assay type: functional, Prostate gland
Rattus norvegicus [11] = species: Rattus norvegicus; assay: Dose required to inhibit the prostate contractile response by 50% after challenge with selective alpha-1a agonist A61603 and duration of action was 1.5h in an in situ rat prostate model; assay type: functional, Prostate gland
[12] = Percent bioavailability in dog; assay type: ADME, organism-based, Canis lupus familiaris; details: in vivo, read-out: Bioavailabiility
Rattus norvegicus [13] = species: Rattus norvegicus; assay: Dose required to inhibit the prostate contractile response by 50% after challenge with selective alpha-1a agonist A61603 and duration of action was 2.5h in an in situ rat prostate model; assay type: functional, Prostate gland
Rattus norvegicus [14] = species: Rattus norvegicus; assay: Dose required to inhibit the prostate contractile response by 50% after challenge with selective alpha-1a agonist A61603 and duration of action was 1 hr in an in situ rat prostate model; assay type: functional, Prostate gland

Ki [1] | Ki [2] | Ki [3] | Ki [4] | Ki [5] | Ki [6] | Ki (Histamine H1 receptor) | half-life [8] | bioavailability [12] | Structure (SMILES) | AD50 (Rattus norvegicus [7]) | AD50 (Rattus norvegicus [9]) | AD50 (Rattus norvegicus [10]) | AD50 (Rattus norvegicus [11]) | AD50 (Rattus norvegicus [13]) | AD50 (Rattus norvegicus [14])
682 nM | 1200 nM | 3 nM |  |  |  |  |  |  | CC1=C(C(=O)NCCCN2CCC(c3ccccc3C#N)CC2)[C@@H](c2ccc(F)c(F)c2)CC(=O)N1C |  |  |  |  |  | 
200 nM | 37 nM | 0.4 nM | 162 nM | 229 nM | 313 nM | 19 nM |  |  | CC1=C(C(=O)NCCCN2CCC(c3ccc(F)cc3)CC2)[C@@H](c2ccc(F)c(F)c2)CC(=O)N1 | 0.032 mg/kg |  |  |  |  | 
> 5000 nM | > 2000 nM | 3.2 nM |  |  |  |  |  |  | CC1=C(C(=O)NCCCN2CCC(C#N)(c3ccccc3C#N)CC2)[C@@H](c2ccc(F)c(F)c2)CC(=O)N1 |  |  |  |  |  | 
> 5000 nM | > 2000 nM | 7 nM | 1760 nM | 13600 nM | 6530 nM | 616 nM |  |  | CC1=C(C(=O)NCCCN2CCC(C#N)(c3ccc(F)cc3C#N)CC2)[C@@H](c2ccc(F)c(F)c2)CC(=O)N1C |  |  |  |  |  | 
590 nM | 366 nM | 0.8 nM | 288 nM | 4520 nM | 3850 nM | 398 nM | 1.4 h |  | CC1=C(C(=O)NCCCN2CCC(c3ccc(F)cc3C#N)CC2)[C@@H](c2ccc(F)c(F)c2)CC(=O)N1C |  | 0.009 mg/kg |  |  |  | 
 |  |  |  |  |  |  |  |  | CCOc1ccccc1OCCN[C@H](C)Cc1ccc(OC)c(S(N)(=O)=O)c1 [TAMSULOSIN] |  |  | 0.003 mg/kg |  |  | 
> 5000 nM | > 2000 nM | 13 nM |  |  |  |  |  |  | CC1=C(C(=O)NCCCN2CCC(C#N)(c3ccccc3C#N)CC2)[C@@H](c2ccc(F)c(F)c2)CC(=O)N1C |  |  |  |  |  | 
588 nM | 805 nM | 1 nM | 531 nM | 1970 nM | 2000 nM | 108 nM |  |  | CC1=C(C(=O)NCCCN2CCC(C#N)(c3ccc(F)cc3F)CC2)[C@@H](c2ccc(F)c(F)c2)CC(=O)N1 |  |  |  | 0.017 mg/kg |  | 
330 nM | 330 nM | 1 nM |  |  |  |  |  |  | CC1=C(C(=O)NCCCN2CCC(c3ccccc3C#N)CC2)[C@@H](c2ccc(F)c(F)c2)CC(=O)N1 |  |  |  |  |  | 
880 nM | 425 nM | 1.9 nM | 776 nM | 1860 nM | 1100 nM | 355 nM |  |  | CC1=C(C(=O)NCCCN2CCC(C#N)(c3ccc(F)cc3)CC2)[C@@H](c2ccc(F)c(F)c2)CC(=O)N1C | 0.025 mg/kg |  |  |  |  | 
1050 nM | 1040 nM | 1.8 nM |  |  |  | 63 nM |  |  | CC1=C(C(=O)NCCCN2CCC(C#N)(c3ccc(F)cc3)CC2)[C@@H](c2ccc(F)c(F)c2)CC(=O)N1 |  |  |  |  |  | 
> 5000 nM | > 2000 nM | 1.4 nM | 676 nM | 7850 nM | 4680 nM | 91 nM |  |  | CC1=C(C(=O)NCCCN2CCC(C#N)(c3ccc(F)cc3C#N)CC2)[C@@H](c2ccc(F)c(F)c2)CC(=O)N1 |  |  |  |  |  | 
> 5000 nM | > 2000 nM | 42 nM |  |  |  |  |  |  | CC1=C(C(=O)NCC(C)CN2CCC(C#N)(c3ccccn3)CC2)[C@@H](c2ccc(F)c(F)c2)CC(=O)N1 (stereo not given in full) |  |  |  |  |  | 
250 nM | 54 nM | 0.7 nM |  |  |  |  |  |  | CC1=C(C(=O)NCCCN2CCC(c3ccc(F)cc3)CC2)[C@@H](c2ccc(F)c(F)c2)CC(=O)N1C |  |  |  |  |  | 
150 nM | 100 nM | 0.2 nM | 145 nM | 1290 nM | 1480 nM | 58 nM | 4.8 h | 34% | CC1=C(C(=O)NCCCN2CCC(c3ccc(F)cc3C#N)CC2)[C@@H](c2ccc(F)c(F)c2)CC(=O)N1 |  |  |  |  | 0.005 mg/kg | 
1160 nM | 842 nM | 1.1 nM | 955 nM | 3390 nM | 1910 nM | 302 nM |  |  | CC1=C(C(=O)NCCCN2CCC(C#N)(c3ccc(F)cc3F)CC2)[C@@H](c2ccc(F)c(F)c2)CC(=O)N1C |  |  |  |  |  | 0.029 mg/kg

Structure (SMILES) | Ki [1] | Ki [2] | Ki [3] | Ki [4] | Ki [5] | Ki [6] | Ki (Histamine H1 receptor) | half-life [8] | bioavailability [12] | AD50 (Rattus norvegicus [7]) | AD50 (Rattus norvegicus [9]) | AD50 (Rattus norvegicus [10]) | AD50 (Rattus norvegicus [11]) | AD50 (Rattus norvegicus [13]) | AD50 (Rattus norvegicus [14])
CC1=C(C(=O)NCCCN2CCC(C#N)(c3ccccn3)CC2)[C@@H](c2ccc(F)c(F)c2)CC(=O)N1C | > 5000 nM | > 2000 nM |  |  |  |  |  |  |  |  |  |  |  |  | 
